Measurements: US20240246964A1 (Arbutus Biopharma Corporation, priority 2021, published 2024)

biological target: human PD-L1 (Homo sapiens (Human), UniProt Q9NZQ7); assay: T cell activation luciferase reporter cell culture system (T Cell Activation Assay); assay type: cell-based; conditions: luciferase reporter assay; PD-L1 aAPC/CHO-K1 cells with PD-1 effector Jurkat T cells
Sequence (Q9NZQ7 19-290): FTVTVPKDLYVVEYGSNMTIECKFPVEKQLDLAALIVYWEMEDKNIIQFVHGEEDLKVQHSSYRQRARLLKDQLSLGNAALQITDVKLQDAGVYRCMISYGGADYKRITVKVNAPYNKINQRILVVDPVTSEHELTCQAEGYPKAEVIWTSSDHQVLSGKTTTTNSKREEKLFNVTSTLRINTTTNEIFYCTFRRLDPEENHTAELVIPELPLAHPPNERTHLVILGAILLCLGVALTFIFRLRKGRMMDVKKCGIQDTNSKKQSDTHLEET

Compound | EC50 [nM]
COc1cc(-c2nccc(-c3cccc(-c4ccc(CN[C@H]5C[C@](C)(O)C5)c(OC)n4)c3Cl)c2Cl)ccc1CN[C@H]1C[C@](C)(O)C1 [Example 385, (1r,3r)-3-(((6-(2-Chloro-3-(3-chloro-2-(4-((((1r,3r)-3-hydroxy-3-methylcyclobutyl)amino)methyl)-3-methoxyphenyl)pyridin-4-yl)phenyl)-2-methoxypyridin-3-yl)methyl)amino)-1-methylcyclobutan-1-ol] | 17.8
COc1cc(-c2nccc(-c3cccc(-c4ccc(CN5CC6(CNC(=O)C6)C5)c(OC)n4)c3Cl)c2Cl)ccc1CN1CC2(CC(O)C2)C1 [Example 497, 2-((6-(2-Chloro-3-(3-chloro-2-(4-((6-hydroxy-2-azaspiro[3.3]heptan-2-yl)methyl)-3-methoxyphenyl)pyridin-4-yl)phenyl)-2-methoxypyridin-3-yl)methyl)-2,6-diazaspiro[3.4]octan-7-one] | 30.2
COc1cc(-c2nccc(-c3cccc(-c4ccc(CNC[C@@H]5CCC(=O)N5)c(OC)n4)c3Cl)c2Cl)ccc1CNC1CC2(C1)CN(C(C)=O)C2 [Example 237, (S)-5-((((6-(3-(2-(4-(((2-acetyl-2-azaspiro[3.3]heptan-6-yl)amino)methyl)-3-methoxyphenyl)-3-chloropyridin-4-yl)-2-chlorophenyl)-2-methoxypyridin-3-yl)methyl)amino)methyl)pyrrolidin-2-one] | 22.1
COc1nc(-c2cccc(-c3ccnc(-c4ccn5c(=O)c(CNC[C@@H]6CCC(=O)N6)cnc5c4)c3Cl)c2Cl)ccc1CNC[C@@H]1CCC(=O)N1 [Cmpd 2, 8-(3-chloro-4-(2-chloro-3-(6-methoxy-5-(((((S)-5-oxopyrrolidin-2-yl)methyl)amino)methyl)pyridin-2-yl)phenyl)pyridin-2-yl)-3-(((((S)-5-oxopyrrolidin-2-yl)methyl)amino)methyl)-4H-pyrido[1,2-a]pyrimidin-4-one] | 87.6
COC(=O)CCN1CCc2cc(-c3nccc(-c4cccc(-c5ccc(CN6CC7(CNC(=O)C7)C6)c(OC)n5)c4Cl)c3Cl)cc(OC)c2C1 [Example 273, Methyl 3-(6-(3-chloro-4-(2-chloro-3-(6-methoxy-5-((7-oxo-2,6-diazaspiro[3.4]octan-2-yl)methyl)pyridin-2-yl)phenyl)pyridin-2-yl)-8-methoxy-3,4-dihydroisoquinolin-2(1H)-yl)propanoate] | 116
COc1cc(-c2nccc(-c3cccc(-c4ccc(CN[C@H]5CC[C@H](O)CC5)c(OC)n4)c3Cl)c2Cl)ccc1CN[C@H]1CC[C@H](O)CC1 [Example 364, (1r,4r)-4-(((6-(2-Chloro-3-(3-chloro-2-(4-((((1r,4r)-4-hydroxycyclohexyl)amino)methyl)-3-methoxyphenyl)pyridin-4-yl)phenyl)-2-methoxypyridin-3-yl)methyl)amino)cyclohexan-1-ol] | 28.5
COc1cc(-c2nccc(-c3cccc(-c4ccc(CNC[C@@H]5CCC(=O)N5)c(OC)n4)c3Cl)c2Cl)cc2c1CN(C[C@H]1C[C@@H](O)C1)CC2 [Cmpd 134] | 23
COc1cc(-c2nccc(-c3cccc(-c4ccc(CN5CC6(CCN(C(C)=O)C6)C5)c(OC)n4)c3Cl)c2Cl)ccc1CN1CCC(O)CC1 [Example 692, 1-(2-((6-(2-Chloro-3-(3-chloro-2-(4-((4-hydroxypiperidin-1-yl)methyl)-3-methoxyphenyl)pyridin-4-yl)phenyl)-2-methoxypyridin-3-yl)methyl)-2,6-diazaspiro[3.4]octan-6-yl)ethan-1-one] | 43.5
COc1nc(-c2cncc(-c3cccc(NC(=O)c4cn(C)c(=O)n(C)c4=O)c3Cl)c2Cl)ccc1CNC[C@@H]1CCC(=O)N1 [Compound 712, (S)—N-(2-Chloro-3-(4′-chloro-6-methoxy-5-((((5-oxopyrrolidin-2-yl)methyl)amino)methyl)-[2,3′-bipyridin]-5′-yl)phenyl)-1,3-dimethyl-2,4-dioxo-1,2,3,4-tetrahydropyrimidine-5-carboxamide] | 89.1
COc1cc(-c2nccc(-c3cccc(-c4ccc(CN5CC[C@H](C(=O)O)C5)c(OC)n4)c3Cl)c2Cl)ccc1CNC1CCN(C(C)=O)CC1 [Example 388, (S)-1-((6-(3-(2-(4-(((1-acetylpiperidin-4-yl)amino)methyl)-3-methoxyphenyl)-3-chloropyridin-4-yl)-2-chlorophenyl)-2-methoxypyridin-3-yl)methyl)pyrrolidine-3-carboxylic acid] | 38.5
COc1cc(-c2ncnc(-c3cccc(-c4ccc(CNCCO)c(OC)n4)c3Cl)c2Cl)ccc1CN1CC2(CNC(=O)C2)C1 [Example 711, 2-(4-(5-Chloro-6-(2-chloro-3-(5-(((2-hydroxyethyl)amino)methyl)-6-methoxypyridin-2-yl)phenyl)pyrimidin-4-yl)-2-methoxybenzyl)-2,6-diazaspiro[3.4]octan-7-one] | 195
COc1cc(-c2nccc(-c3cccc(-c4ccc5c(OC)c(CNCCO)cc(Cl)c5n4)c3Cl)c2Cl)ccc1CNC[C@@H]1CCC(=O)N1 [Example 238, (S)-5-(((4-(3-chloro-4-(2-chloro-3-(8-chloro-6-(((2-hydroxyethyl)amino)methyl)-5-methoxyquinolin-2-yl)phenyl)pyridin-2-yl)-2-methoxybenzyl)amino)methyl)pyrrolidin-2-one] | 128
COc1cc(-c2nccc(-c3cccc4c3CC[C@@H]4Nc3nc(OC)c(CN4CC5(CNC(=O)C5)C4)nc3C(F)(F)F)c2Cl)ccc1CN1CC2(CNC(=O)C2)C1 [Example 366, (S)-2-(4-(3-Chloro-4-(1-((6-methoxy-5-((7-oxo-2,6-diazaspiro[3.4]octan-2-yl)methyl)-3-(trifluoromethyl)pyrazin-2-yl)amino)-2,3-dihydro-1H-inden-4-yl)pyridin-2-yl)-2-methoxybenzyl)-2,6-diazaspiro[3.4]octan-7-one] | 159
COc1cc(-c2nccc(-c3cccc(-c4ccc(CNC[C@@H]5CCC(=O)N5)c(OC)n4)c3Cl)c2Cl)ccc1CN1CCC(NC(C)=O)CC1 [Example 403, (S)—N-(1-(4-(3-Chloro-4-(2-chloro-3-(6-methoxy-5-((((5-oxopyrrolidin-2-yl)methyl)amino)methyl)pyridin-2-yl)phenyl)pyridin-2-yl)-2-methoxybenzyl)piperidin-4-yl)acetamide] | 18.9
COc1cc(-c2nccc(-c3cccc(-c4cnc(CNC[C@@H]5CCC(=O)N5)c(OC)n4)c3Cl)c2Cl)ccc1CNC[C@@H]1CCC(=O)N1 [Cmpd 20, (S)-5-((((5-(2-chloro-3-(3-chloro-2-(3-methoxy-4-(((((S)-5-oxopyrrolidin-2-yl)methyl)amino)methyl)phenyl)pyridin-4-yl)phenyl)-3-methoxypyrazin-2-yl)methyl)amino)methyl)pyrrolidin-2-one] | 22.3
COc1cc(-c2nccc(-c3cccc(-c4ccc(CN5CC6(C5)CN(C(C)=O)C6)c(OC)n4)c3C#N)c2Cl)ccc1CN1CC2(C1)CN(C(C)=O)C2 [Example 636, 2-(2-(4-((6-Acetyl-2,6-diazaspiro[3.3]heptan-2-yl)methyl)-3-methoxyphenyl)-3-chloropyridin-4-yl)-6-(5-((6-acetyl-2,6-diazaspiro[3.3]heptan-2-yl)methyl)-6-methoxypyridin-2-yl)benzonitrile] | 1270
COc1cc(-c2nccc(-c3cccc(-c4ccc(CN5CCC(NC(C)=O)CC5)c(OC)n4)c3C)c2Cl)ccc1CN1CCC(NC(C)=O)CC1 [Example 467, N-(1-((6-(3-(2-(4-((4-acetamidopiperidin-1-yl)methyl)-3-methoxyphenyl)-3-chloropyridin-4-yl)-2-methylphenyl)-2-methoxypyridin-3-yl)methyl)piperidin-4-yl)acetamide] | ≥ 10000
COc1nc(-c2ccnc(-c3cccc4c3CC[C@@H]4Nc3nc(OC)c(CNC4CCN(C(C)=O)CC4)cc3C(F)(F)F)c2Cl)ccc1CNC[C@@H]1CCC(=O)N1 [Example 633, (S)-5-((((2′-((S)-1-((5-(((1-Acetylpiperidin-4-yl)amino)methyl)-6-methoxy-3-(trifluoromethyl)pyridin-2-yl)amino)-2,3-dihydro-1H-inden-4-yl)-3′-chloro-6-methoxy-[2,4′-bipyridin]-5-yl)methyl)amino)methyl)pyrrolidin-2-one] | 121
COc1cc(-c2nccc(-c3cccc(-c4ccc(CN5CCC(NC(C)=O)CC5)c(OC)n4)c3Cl)c2Cl)ccc1CNC[C@H]1CCC(=O)N1 [Example 356, (R)—N-(1-((6-(2-Chloro-3-(3-chloro-2-(3-methoxy-4-((((5-oxopyrrolidin-2-yl)methyl)amino)methyl)phenyl)pyridin-4-yl)phenyl)-2-methoxypyridin-3-yl)methyl)piperidin-4-yl)acetamide] | 25.5
COc1cc(-c2nccc(-c3cccc(-c4ccc(CNC5CCOCC5)c(OC)n4)c3Cl)c2Cl)cc(F)c1CNC1CCOCC1 [Example 348, N-((6-(2-Chloro-3-(3-chloro-2-(3-fluoro-5-methoxy-4-(((tetrahydro-2H-pyran-4-yl)amino)methyl)phenyl)pyridin-4-yl)phenyl)-2-methoxypyridin-3-yl)methyl)tetrahydro-2H-pyran-4-amine] | 28.9
COc1cc(-c2nccc(-c3cccc(-c4ccc(CNCCCCC(N)=O)c(OC)n4)c3Cl)c2Cl)ccc1CNCCCCC(N)=O [Example 373, 5-(((6-(3-(2-(4-(((5-Amino-5-oxopentyl)amino)methyl)-3-methoxyphenyl)-3-chloropyridin-4-yl)-2-chlorophenyl)-2-methoxypyridin-3-yl)methyl)amino)pentanamide] | 152
COc1nc(-c2cccc(-c3ccnc(-c4cc(F)c5c(c4)CCN(C[C@@H]4CCC(=O)N4)C5)c3Cl)c2Cl)ccc1CNC[C@@H]1CCC(=O)N1 [Cmpd 61, (S)-5-((((6-(2-chloro-3-(3-chloro-2-(8-fluoro-2-(((S)-5-oxopyrrolidin-2-yl)methyl)-1,2,3,4-tetrahydroisoquinolin-6-yl)pyridin-4-yl)phenyl)-2-methoxypyridin-3-yl)methyl)amino)methyl)pyrrolidin-2-one] | 75.5
COc1cc(-c2nccc(-c3cccc(-c4ccc(CNC[C@@H]5CCC(=O)N5)c(OC)n4)c3Cl)c2Cl)ccc1CN[C@@H](C)C(=O)OC(C)C [Cmpd 125, isopropyl (4-(3-chloro-4-(2-chloro-3-(6-methoxy-5-(((((S)-5-oxopyrrolidin-2-yl)methyl)amino)methyl)pyridin-2-yl)phenyl)pyridin-2-yl)-2-methoxybenzyl)-L-alaninate] | 361
